In US20250213572A1, “TYK2 INHIBITORS AND USES THEREOF” (Takeda Pharmaceutical Company Limited, priority 2022, published 2025):
Entries after “also recorded” stand apart in the source; their conditions may differ. Read-outs that look alike come from different tables or passages of the source. Marks after values point to notes of the source that are not given here.

Assays:
[1] = tested on: TYK2-dependent interferon gamma (IFNγ); assay: Ex-vivo whole blood IL-12/IL-18 stimulated IFNγ production (pharmacodynamics); assay type: in vivo, human; conditions: after oral dosing
Method: Pharmacodynamic Results: The PD effect of treatment within this study was assessed using an ex-vivo immune-assay measuring the amount of TYK2-dependent interferon gamma (IFNγ) produced by whole blood samples that were stimulated with the cytokines IL-12 and IL-18 at baseline (predose) and following treatment.

[2] = assay type: in vivo, human
Text: The observed accumulation ratio, between Day 1 and Day 28, in this study was consistent with the value obtained in the previous study in healthy volunteers.

[3] = tested on: psoriasis lesional skin markers (epidermal thickness, K16, psoriasis gene signatures); assay: Study 102: skin punch biopsy PD markers (H&E, K16, RT-PCR, microarray); assay type: in vivo, human
Method: Skin PD markers are evaluated based on the change in epidermal thickness (via hematoxylin and eosin, or H&E staining) and the presence of the type I keratin K16 hyperproliferation marker.
Methods: mRNA from skin biopsies was isolated and assessed for targeted (RT-PCR) or global (microarray) gene expression. […] Numbers in parentheses are (probeset overlap of Nimbus PSTR and indicated dataset/Total # of probesets in dataset). Percent improvement is assessed as the mean % change (+/−SEM) in expression of the overlapping probesets toward baseline non-lesional expression (*** p<0.001 comparing treatment vs. placebo).

panel of 631 kinases = assay: Binding screen against a panel of 631 kinases; conditions: 1 micromolar concentration
TYK2 = assay: rWB IFNα IP-10 (rat whole-blood TYK2-dependent IFNα-induced IP10 assay); assay type: cell-based
JAK2 = JAK2 PBMC GMCSF pSTAT5; assay type: cell-based; conditions: Homo sapiens
PDE4D = PDE4D (Homo sapiens, UniProt Q08499); assay: PDE4D IC50; assay type: biochemical
Chain of PDE4D (Q08499 whole entry, species assumed): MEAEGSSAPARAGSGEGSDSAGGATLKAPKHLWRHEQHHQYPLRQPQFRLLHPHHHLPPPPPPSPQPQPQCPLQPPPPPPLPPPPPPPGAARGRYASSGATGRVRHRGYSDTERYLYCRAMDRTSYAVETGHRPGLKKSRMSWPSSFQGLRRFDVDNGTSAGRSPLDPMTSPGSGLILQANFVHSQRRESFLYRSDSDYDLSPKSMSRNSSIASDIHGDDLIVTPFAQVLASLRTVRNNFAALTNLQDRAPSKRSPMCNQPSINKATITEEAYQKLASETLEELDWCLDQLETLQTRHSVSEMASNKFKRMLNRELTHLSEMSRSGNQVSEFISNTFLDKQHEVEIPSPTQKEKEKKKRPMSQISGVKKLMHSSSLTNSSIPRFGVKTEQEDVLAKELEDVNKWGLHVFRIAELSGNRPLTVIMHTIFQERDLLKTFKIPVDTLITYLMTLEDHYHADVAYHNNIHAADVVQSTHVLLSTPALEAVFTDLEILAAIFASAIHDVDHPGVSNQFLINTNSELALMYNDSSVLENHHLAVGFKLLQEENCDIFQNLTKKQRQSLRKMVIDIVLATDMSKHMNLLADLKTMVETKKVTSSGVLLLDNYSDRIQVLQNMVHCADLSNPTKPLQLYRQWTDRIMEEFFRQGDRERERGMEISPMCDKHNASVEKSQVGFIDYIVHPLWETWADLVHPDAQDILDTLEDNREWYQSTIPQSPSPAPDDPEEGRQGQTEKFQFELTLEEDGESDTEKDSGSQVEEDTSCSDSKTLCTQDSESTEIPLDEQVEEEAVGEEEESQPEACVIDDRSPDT

hERG = hERG (Homo sapiens, UniProt Q12809); assay: hERG (Patch Clamp); assay type: cell-based
Chain of hERG (Q12809 whole entry): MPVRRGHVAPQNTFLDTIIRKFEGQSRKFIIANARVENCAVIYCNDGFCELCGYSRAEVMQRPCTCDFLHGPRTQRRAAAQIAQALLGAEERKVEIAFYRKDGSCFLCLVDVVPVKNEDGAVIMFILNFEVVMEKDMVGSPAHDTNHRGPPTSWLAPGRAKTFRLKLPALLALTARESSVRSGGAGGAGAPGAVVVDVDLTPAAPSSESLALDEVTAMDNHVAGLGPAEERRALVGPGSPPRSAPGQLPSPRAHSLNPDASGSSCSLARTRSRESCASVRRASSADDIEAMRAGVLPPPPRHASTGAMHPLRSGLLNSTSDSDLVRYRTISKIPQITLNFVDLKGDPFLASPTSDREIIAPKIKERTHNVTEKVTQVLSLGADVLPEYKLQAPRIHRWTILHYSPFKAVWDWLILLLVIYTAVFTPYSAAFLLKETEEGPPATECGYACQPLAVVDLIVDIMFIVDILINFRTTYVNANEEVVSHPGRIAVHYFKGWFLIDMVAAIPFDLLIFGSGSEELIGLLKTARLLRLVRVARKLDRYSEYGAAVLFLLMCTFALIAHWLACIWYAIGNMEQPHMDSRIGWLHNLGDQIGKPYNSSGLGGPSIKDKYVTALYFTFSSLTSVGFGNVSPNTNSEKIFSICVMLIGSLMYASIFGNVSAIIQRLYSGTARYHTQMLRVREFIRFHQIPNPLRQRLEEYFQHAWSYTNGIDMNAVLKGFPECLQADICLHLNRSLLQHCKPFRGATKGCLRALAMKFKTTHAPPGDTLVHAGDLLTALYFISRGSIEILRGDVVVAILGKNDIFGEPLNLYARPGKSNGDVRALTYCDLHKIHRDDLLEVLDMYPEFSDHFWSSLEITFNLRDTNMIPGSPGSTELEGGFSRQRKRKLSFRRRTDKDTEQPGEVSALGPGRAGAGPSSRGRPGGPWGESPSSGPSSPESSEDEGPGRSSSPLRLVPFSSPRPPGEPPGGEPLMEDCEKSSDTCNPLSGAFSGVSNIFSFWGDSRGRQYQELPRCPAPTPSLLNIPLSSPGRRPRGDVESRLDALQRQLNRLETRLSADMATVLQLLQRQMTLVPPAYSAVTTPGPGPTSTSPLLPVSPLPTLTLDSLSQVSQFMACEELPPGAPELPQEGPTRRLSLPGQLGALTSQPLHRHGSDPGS

[4] = tested on: 87 target panel of enzymes, ion channels, receptors; assay: 87 target panel of enzymes, ion channels, receptors; assay type: biochemical; conditions: @ 10,000 nM
hepatocytes [5] = assay: Hepatocyte predicted clearance (Hep Clpred), mouse; assay type: in vitro ADME; conditions: in vitro
hepatocytes [6] = assay: Hepatocyte predicted clearance (Hep Clpred), rat; assay type: in vitro ADME; conditions: in vitro
hepatocytes [7] = assay: Hepatocyte predicted clearance (Hep Clpred), dog; assay type: in vitro ADME; conditions: in vitro
hepatocytes [8] = assay: Hepatocyte predicted clearance (Hep Clpred), cyno; assay type: in vitro ADME; conditions: in vitro
hepatocytes [9] = assay: Hepatocyte predicted clearance (Hepatopac low turnover assay), human; assay type: in vitro ADME
[10] = Plasma protein binding (PPB Fu), mouse; assay type: in vitro ADME; conditions: in vitro
[11] = In vivo pharmacokinetics, rat; conditions: plasma
[12] = In vivo pharmacokinetics, dog; conditions: plasma
[13] = In vivo pharmacokinetics, cyno; conditions: cynomolgus monkey
CYP450 1A2 = CYP450 1A2 (Homo sapiens, UniProt P05177); assay: CYP450 inhibition, 1A2; assay type: in vitro ADME
Chain of CYP450 1A2 (P05177 whole entry): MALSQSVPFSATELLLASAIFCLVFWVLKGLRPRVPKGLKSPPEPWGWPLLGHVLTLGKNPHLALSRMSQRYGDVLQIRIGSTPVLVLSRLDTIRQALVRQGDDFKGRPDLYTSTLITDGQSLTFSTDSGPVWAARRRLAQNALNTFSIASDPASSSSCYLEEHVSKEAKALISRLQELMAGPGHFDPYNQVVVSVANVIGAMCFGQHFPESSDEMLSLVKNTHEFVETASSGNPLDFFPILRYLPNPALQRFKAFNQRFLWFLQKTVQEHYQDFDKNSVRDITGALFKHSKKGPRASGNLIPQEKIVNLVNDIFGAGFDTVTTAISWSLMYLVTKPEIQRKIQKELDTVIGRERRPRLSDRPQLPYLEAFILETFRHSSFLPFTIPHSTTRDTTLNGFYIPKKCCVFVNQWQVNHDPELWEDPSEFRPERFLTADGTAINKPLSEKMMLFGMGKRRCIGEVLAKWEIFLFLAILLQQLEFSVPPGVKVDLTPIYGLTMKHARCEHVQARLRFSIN

CYP450 2C9 = CYP450 2C9 (Homo sapiens, UniProt P11712); assay: CYP450 inhibition, 2C9; assay type: in vitro ADME
Chain of CYP450 2C9 (P11712 whole entry): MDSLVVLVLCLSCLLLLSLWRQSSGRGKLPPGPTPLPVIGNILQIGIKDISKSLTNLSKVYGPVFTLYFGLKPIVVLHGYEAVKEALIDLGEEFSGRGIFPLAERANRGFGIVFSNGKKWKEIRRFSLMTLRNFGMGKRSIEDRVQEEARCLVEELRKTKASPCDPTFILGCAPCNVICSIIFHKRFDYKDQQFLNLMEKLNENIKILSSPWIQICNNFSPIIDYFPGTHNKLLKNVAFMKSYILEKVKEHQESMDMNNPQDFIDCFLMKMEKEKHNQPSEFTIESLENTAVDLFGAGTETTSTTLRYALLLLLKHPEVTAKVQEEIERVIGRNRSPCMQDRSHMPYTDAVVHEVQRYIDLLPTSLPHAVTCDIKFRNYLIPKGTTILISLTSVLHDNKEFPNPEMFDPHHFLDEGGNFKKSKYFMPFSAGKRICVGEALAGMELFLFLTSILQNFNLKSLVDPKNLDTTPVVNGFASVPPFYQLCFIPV

CYP450 2C19 = CYP450 2C19 (Homo sapiens, UniProt P33261); assay: CYP450 inhibition, 2C19; assay type: in vitro ADME
Chain of CYP450 2C19 (P33261 whole entry): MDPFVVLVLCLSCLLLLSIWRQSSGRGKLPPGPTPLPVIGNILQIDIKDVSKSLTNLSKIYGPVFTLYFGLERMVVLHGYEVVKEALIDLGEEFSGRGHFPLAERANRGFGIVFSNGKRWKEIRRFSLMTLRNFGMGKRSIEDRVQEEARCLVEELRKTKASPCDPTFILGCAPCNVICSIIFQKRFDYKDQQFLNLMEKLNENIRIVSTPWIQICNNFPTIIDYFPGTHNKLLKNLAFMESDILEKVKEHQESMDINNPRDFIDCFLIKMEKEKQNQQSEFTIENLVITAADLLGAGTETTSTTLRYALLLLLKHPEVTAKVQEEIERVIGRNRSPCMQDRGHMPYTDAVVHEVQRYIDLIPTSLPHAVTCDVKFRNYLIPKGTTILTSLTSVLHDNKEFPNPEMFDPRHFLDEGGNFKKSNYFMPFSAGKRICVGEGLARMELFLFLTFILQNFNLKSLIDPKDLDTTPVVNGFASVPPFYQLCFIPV

CYP450 3A4 = CYP450 3A4 (Homo sapiens, UniProt P08684); assay: CYP450 inhibition, 3A4; assay type: in vitro ADME; conditions: 3A4 (M)
Chain of CYP450 3A4 (P08684 whole entry): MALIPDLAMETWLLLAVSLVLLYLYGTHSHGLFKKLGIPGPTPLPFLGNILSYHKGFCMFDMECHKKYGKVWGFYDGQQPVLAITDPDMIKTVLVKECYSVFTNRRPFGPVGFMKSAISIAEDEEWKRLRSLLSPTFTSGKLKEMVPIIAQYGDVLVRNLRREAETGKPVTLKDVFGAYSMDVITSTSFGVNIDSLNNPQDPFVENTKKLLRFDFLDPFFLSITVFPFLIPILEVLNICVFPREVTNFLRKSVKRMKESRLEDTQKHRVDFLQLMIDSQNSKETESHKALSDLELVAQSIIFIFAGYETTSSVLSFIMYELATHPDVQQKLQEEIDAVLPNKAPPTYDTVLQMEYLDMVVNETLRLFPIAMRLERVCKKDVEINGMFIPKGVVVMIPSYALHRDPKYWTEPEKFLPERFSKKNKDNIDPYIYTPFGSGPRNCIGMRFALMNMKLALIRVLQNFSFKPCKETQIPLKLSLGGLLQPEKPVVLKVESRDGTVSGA

[14] = Pharmacokinetics in healthy volunteers (PO; QD), Study 101 and Study 104 (FIG. 11, FIG. 12); assay type: in vivo, human
CYP450 = CYP450 time-dependent inhibition and DDI perpetrator potential; assay type: in vitro ADME
[15] = Nonclinical oral absorption across species (summary); assay type: in vivo
[16] = human, in vivo
[17] = human, in vivo; remark: listed apart in the source
clinical [18] = conditions: human, in vivo
clinical [19] = conditions: human, plasma, oral
[20] = tested on: adjuvant-induced arthritis; assay: Rat adjuvant-induced arthritis (AIA) efficacy model; conditions: administered daily for 20 days

With `CNc1cc(Nc2cccn(-c3ccccn3)c2=O)nc2c(C(=O)N[C@@H]3CC[C@H]3OC)cnn12` [Compound 1, N-((1R,2R)-2-methoxycyclobutyl)-7-(methylamino)-5-((2-oxo-2H-[1,2′-bipyridin]-3-yl)amino)pyrazolo[1,5-a]pyrimidine-3-carboxamide] the “IFNγ production in cytokine-stimulated ex vivo whole blood” value [1] was “greater reduction in IFNγ; also recorded: dose-dependent inhibition of IFNy; also recorded: rapid inhibition of interferon gamma (IFNγ) production”, the “median time of mean peak plasma concentrations” value ([2]; Cohorts 1-3, 5 to 30 mg once daily) was 3 to 4 h and the “inter-subject variability, CV for AUC0-tau” value ([2]; human, in vivo) was 47-269%. For the same compound, the “inter-subject variability, CV for Cmax” value ([2]; human, in vivo) was 55-111%, the “expression of psoriasis-related genes (KRT16, IL17A, IL17F, IL22) in skin biopsies” value ([3]; RT-PCR, 28 days treatment) was “suggestive decreases in the expression of several psoriasis-related genes” and the “improvement in the expression of skin transcriptomes previously associated with psoriasis in lesional skin” value ([3]; microarray, 28 days treatment, p<0.001 compared to placebo) was “up to 50%”. For the same compound, the “epidermal thickness and K16 biomarker expression” value ([3]; three dosing cohorts, four weeks, 17 patients evaluated) was “reduced epidermal thickness and resolved expression of the K16 biomarker”, the “inhibition of PIP51K1C” value (panel of 631 kinases) was 54 % inhibition and the “kinases inhibited with >50% inhibition in panel of 631 kinases” value (panel of 631 kinases) was “Only one kinase was inhibited with >50% inhibition”. For the same compound, the IC50 (TYK2) was […], the IC50 (JAK2) was > 50 µM and the IC50 (PDE4D) was > 10 µM. For the same compound, the IC50 (hERG) was > 30 µM, the “inhibition for 85 targets of the 87 target panel” value [4] was <50% inhibition for 85 and the “inhibition of LCK” value [4] was “LCK (54%) and the adenosine”. For the same compound, the “inhibition of the adenosine transporter” value [4] was “transporter (53%)”, the “Hep Clpred” value (hepatocytes [5]) was 54 mL/min/kg and the “Hep Clpred” value (hepatocytes [6]) was 30 mL/min/kg. The “Hep Clpred” value (hepatocytes [7]) was 15 mL/min/kg, the “Hep Clpred” value (hepatocytes [8]) was 11 mL/min/kg and the “Hep Clpred” value (hepatocytes [9]) was 0.69* mL/min/kg. It also gave a fraction unbound [10] of 0.08, a clearance ([11]; 1 mg/kg, Rat, 1 mpk IV dose, read-out: Clp, obs) of 26 mL/min/kg and a Vd ([11]; 1 mg/kg, Rat, 1 mpk IV dose, read-out: Vss) of 1.6 L/kg. It also gave a Tmax ([11]; 10 mg/kg, Rat, PO 10 mpk) of 1.7 h, a bioavailability ([11]; 10 mg/kg, Rat, PO 10 mpk) of 63% and a half-life ([11]; rat) of 72 min. It also gave a half-life ([12]; dog) of 318 min, a clearance ([12]; 1 mg/kg, Dog, 1 mpk IV dose, read-out: Clp, obs) of 14 mL/min/kg and a Vd ([12]; 1 mg/kg, Dog, 1 mpk IV dose, read-out: Vss) of 4 L/kg. For the same compound, the Tmax ([12]; 10 mg/kg, Dog, PO 10 mpk) was 49.8 min, the bioavailability ([12]; 10 mg/kg, Dog, PO 10 mpk) was 47% and the clearance ([13]; in vivo, 1 mg/kg, Cyno, 1 mpk IV dose, read-out: Clp, obs) was 7 mL/min/kg. For the same compound, the Vd ([13]; in vivo, 1 mg/kg, Cyno, 1 mpk IV dose, read-out: Vss) was 1.9 L/kg, the Tmax ([13]; in vivo, 5 mg/kg, Cyno, PO 5 mpk) was 3 h and the half-life ([13]; plasma) was 228 min. For the same compound, the IC50 (CYP450 1A2) was > 30 µM, the IC50 (CYP450 2C9) was > 30 µM and the IC50 (CYP450 2C19) was > 8 µM. For the same compound, the IC50 (CYP450 3A4) was > 8e-06 M, the “dose proportionality of Cmax and AUC0-24” value ([14]; 5-75 mg) was “increased in an approximately dose-proportional manner” and the half-life ([14]; human, plasma, po, across doses, read-out: Oral T1/2) was 990 to 1840 min. For the same compound, the Tmax ([14]; human, plasma, day 1 and day 14, PO QD, read-out: median Tmax of peak mean plasma concentrations) was 4 to 6 h, the CYP450 time-dependent inhibition (CYP450) was “no time-dependent inhibition” and the DDI perpetrator potential (CYP450) was “low at clinically relevant exposures”. For the same compound, the absorption [15] was “good absorption across species”, the “overall safety and tolerability” value [16] was “generally safe and well tolerated” and the AUC % extrapolated [17] was 9.9-30.9%. For the same compound, the “fraction of the dose excreted in urine (FE %)” value [17] was 0.37-1.89 % of dose, the CL renal (clinical [18]) was 1 to 5 mL/min and the Tmax (clinical [18]) was 3 to 5 h. The AUC(0-inf) (clinical [18]; 75 mg) was 589 to 8370 ng·h/mL, the Cmax (clinical [18]; 75 mg) was 21.6 to 237 ng/mL and the AUC(0-inf) (clinical [18]; 100 mg) was 10700 ng·h/mL. For the same compound, the AUC(0-inf) (clinical [18]; 150 mg) was 12200 ng·h/mL, the Cmax (clinical [18]; 200 mg) was 232 to 250 ng/mL and the Tmax (clinical [19]) was 3 to 6 h. The half-life (clinical [19]) was 1020 to 2220 min, the “disease activity in rat AIA model” value [20] was “suppressed disease activity in a dose-related manner” and the “subjects with TEAEs” value (5 mg, 3/8) was 38%. For the same compound, the “subjects with TEAEs” value (10 mg, 4/7) was 57%, the “subjects with TEAEs” value (30 mg, 4/6) was 67% and the severe adverse events (30 mg, led to discontinuation of treatment) was “one severe (Grade 3) adverse event of neutropenia”. The “deaths or serious AEs” value (5, 10 or 30 mg daily, 28 days) was “no deaths or serious AEs”, the “overall safety and tolerability” value (5, 10 or 30 mg daily, 28 days) was “generally safe and well tolerated” and the “acneiform dermatitis, papular rash, aphthous ulcer” value (all doses) was “no events of acneiform dermatitis, papular rash, or aphthous ulcer”. For the same compound, the “vital signs, physical exam, ECG” value (all doses) was “no clinically significant changes in vital signs, physical exam, or ECG”.
